Tests used:
[1] = biological target: Mitogen-activated protein kinase 3 (Homo sapiens, UniProt P27361); test: DRUGMATRIX: Protein Serine/Threonine Kinase, ERK1 enzyme inhibition (substrate: Myelin Basic Protein); design: species or system Escherichia coli; conditions: Not Active = under 50% inhibition at 10 µM
Melanocortin receptor 5 = Melanocortin receptor 5 (Homo sapiens, UniProt P33032); format: cell membranes, HEK293, Membrane; conditions: hek293; further: in other assays of this panel Not Active means under 50% inhibition at 10 µM
Chain of Melanocortin receptor 5 (P33032 whole entry): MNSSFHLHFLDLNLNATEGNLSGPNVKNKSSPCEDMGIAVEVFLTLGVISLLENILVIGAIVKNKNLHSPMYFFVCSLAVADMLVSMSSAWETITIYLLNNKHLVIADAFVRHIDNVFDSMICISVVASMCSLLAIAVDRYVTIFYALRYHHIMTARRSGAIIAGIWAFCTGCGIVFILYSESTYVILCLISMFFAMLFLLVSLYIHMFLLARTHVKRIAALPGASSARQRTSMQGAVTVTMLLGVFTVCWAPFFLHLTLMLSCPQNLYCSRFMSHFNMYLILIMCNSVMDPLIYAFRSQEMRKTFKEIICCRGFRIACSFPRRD

[2] = biological target: Sigma non-opioid intracellular receptor 1 (Homo sapiens, UniProt Q99720); test: DRUGMATRIX: Sigma1 radioligand binding (ligand: [3H] Haloperidol); format: cell membranes, Jurkat, Membrane; conditions: Not Active = under 50% inhibition at 10 µM; for Ki: read-out: Ki
Chain of Sigma non-opioid intracellular receptor 1 (Q99720 whole entry): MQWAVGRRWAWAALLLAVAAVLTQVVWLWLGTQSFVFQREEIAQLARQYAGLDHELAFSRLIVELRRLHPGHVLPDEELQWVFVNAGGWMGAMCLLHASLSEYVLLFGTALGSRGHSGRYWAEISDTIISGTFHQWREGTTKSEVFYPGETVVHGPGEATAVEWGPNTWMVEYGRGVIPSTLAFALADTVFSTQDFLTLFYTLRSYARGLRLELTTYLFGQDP

Adenosine receptor A1 = biological target: T1, Adenosine receptor A1 (Homo sapiens, UniProt P30542); format: cell membranes, CHO, Membrane; conditions: cho;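 further: radioligand binding assay at the adenosine A1 receptor, with DPCPX serving as the labelled ligand; in other assays of this panel Not Active means under 50% inhibition at 10 µM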
T1 sequence (P30542 whole entry): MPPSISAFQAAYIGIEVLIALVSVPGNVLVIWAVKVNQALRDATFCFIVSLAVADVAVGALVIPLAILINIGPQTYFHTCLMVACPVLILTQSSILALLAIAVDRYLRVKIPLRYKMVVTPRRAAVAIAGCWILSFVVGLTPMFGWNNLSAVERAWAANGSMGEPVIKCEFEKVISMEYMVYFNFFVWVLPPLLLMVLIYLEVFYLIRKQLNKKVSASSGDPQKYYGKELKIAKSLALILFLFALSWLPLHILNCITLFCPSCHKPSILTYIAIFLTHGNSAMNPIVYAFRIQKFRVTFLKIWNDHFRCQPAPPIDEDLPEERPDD

[3] = biological target: Mitogen-activated protein kinase 1 (Homo sapiens, UniProt P28482); test: DRUGMATRIX: Protein Serine/Threonine Kinase, ERK2 enzyme inhibition (substrate: Myelin Basic Protein); design: species or system Escherichia coli; conditions: Not Active = under 50% inhibition at 10 µM
Chain of Mitogen-activated protein kinase 1 (P28482 whole entry): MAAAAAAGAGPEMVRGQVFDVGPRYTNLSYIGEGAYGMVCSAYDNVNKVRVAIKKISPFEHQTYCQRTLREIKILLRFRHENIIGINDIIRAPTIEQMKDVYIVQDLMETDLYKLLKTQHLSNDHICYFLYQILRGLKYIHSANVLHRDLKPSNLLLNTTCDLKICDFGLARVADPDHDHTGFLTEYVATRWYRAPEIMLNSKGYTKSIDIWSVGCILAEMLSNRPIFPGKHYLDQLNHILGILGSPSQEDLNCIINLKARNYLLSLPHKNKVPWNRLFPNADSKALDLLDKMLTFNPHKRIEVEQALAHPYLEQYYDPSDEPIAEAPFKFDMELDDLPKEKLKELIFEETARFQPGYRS

[4] = biological target: T2, Receptor-type tyrosine-protein phosphatase C (Homo sapiens, UniProt P08575); design: species or system Escherichia coli;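 further: inhibition of CD45 enzyme activity measured using DiFMUP as substrate; in other assays of this panel Not Active means under 50% inhibition at 10 µM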
T2 sequence (P08575 whole entry): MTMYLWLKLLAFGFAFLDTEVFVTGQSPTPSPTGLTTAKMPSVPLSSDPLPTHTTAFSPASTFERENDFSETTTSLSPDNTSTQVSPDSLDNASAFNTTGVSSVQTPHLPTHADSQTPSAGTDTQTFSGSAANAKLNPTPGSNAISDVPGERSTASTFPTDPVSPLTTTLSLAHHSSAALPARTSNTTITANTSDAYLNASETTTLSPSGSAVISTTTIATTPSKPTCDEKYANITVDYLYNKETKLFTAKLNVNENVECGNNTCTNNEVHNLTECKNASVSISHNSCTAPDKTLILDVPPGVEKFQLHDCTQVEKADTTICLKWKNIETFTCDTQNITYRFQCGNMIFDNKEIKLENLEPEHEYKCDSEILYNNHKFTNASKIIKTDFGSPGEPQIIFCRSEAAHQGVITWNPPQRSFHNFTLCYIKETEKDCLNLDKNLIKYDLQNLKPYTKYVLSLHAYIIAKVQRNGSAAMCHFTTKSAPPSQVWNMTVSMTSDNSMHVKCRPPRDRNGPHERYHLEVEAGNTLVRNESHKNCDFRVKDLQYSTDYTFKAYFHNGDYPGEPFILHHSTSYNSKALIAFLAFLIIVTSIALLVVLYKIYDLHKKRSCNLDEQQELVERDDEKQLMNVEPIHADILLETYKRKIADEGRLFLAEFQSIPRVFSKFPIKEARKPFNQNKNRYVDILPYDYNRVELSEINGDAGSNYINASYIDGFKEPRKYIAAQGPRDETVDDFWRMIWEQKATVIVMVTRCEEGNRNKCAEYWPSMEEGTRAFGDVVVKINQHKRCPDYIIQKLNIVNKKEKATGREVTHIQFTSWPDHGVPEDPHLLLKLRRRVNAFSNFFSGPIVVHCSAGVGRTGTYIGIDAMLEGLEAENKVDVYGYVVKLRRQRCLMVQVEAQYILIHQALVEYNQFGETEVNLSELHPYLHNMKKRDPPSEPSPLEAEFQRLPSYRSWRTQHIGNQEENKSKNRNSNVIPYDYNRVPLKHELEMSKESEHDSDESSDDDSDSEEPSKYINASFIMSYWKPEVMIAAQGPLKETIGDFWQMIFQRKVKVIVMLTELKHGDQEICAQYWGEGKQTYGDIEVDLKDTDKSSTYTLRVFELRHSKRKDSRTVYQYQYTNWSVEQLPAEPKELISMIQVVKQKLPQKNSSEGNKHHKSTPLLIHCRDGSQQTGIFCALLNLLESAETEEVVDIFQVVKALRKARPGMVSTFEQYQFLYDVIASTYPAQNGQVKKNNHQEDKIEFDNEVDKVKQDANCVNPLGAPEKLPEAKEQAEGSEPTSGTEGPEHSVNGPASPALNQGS

Progesterone receptor = biological target: T3, Progesterone receptor (Bos taurus, UniProt Q690N0); test: DRUGMATRIX: Progesterone radioligand binding (ligand: [3H] R-5020); format: tissue-based, Uterus; conditions: Not Active = under 50% inhibition at 10 µM
T3 sequence (Q690N0 whole entry): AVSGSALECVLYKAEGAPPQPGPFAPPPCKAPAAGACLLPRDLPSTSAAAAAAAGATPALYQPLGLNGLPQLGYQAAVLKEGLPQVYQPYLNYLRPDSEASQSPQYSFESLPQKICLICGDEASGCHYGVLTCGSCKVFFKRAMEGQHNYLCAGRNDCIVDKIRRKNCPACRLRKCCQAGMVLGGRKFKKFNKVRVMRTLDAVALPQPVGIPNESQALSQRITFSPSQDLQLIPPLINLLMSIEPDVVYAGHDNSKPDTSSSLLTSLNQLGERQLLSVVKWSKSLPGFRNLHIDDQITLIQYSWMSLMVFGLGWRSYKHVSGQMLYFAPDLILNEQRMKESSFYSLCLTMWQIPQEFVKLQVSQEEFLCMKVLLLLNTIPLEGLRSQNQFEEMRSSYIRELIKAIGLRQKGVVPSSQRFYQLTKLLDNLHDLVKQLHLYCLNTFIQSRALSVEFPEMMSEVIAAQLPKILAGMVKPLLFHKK

[5] = biological target: T4, Cysteinyl leukotriene receptor 1 (Homo sapiens, UniProt Q9Y271); format: cell membranes, CHO-K1, Membrane; conditions: cho-k1; further: in other assays of this panel Not Active means under 50% inhibition at 10 µM
T4 sequence (Q9Y271 whole entry): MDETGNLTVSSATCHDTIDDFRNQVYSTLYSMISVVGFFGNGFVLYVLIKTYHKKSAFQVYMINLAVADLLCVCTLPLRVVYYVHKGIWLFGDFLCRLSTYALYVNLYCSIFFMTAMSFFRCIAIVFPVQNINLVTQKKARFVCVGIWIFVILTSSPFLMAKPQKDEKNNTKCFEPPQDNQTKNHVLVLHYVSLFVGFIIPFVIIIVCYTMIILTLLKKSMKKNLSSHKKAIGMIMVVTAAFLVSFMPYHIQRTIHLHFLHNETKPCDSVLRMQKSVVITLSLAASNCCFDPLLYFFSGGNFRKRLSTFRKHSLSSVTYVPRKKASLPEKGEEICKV

[6] = biological target: 5-hydroxytryptamine receptor 4 (Cavia porcellus, UniProt O70528); format: cell membranes, Dunkin-Hartley, Striatum, Membrane; further: in other assays of this panel Not Active means under 50% inhibition at 10 µM
Chain of 5-hydroxytryptamine receptor 4 (O70528 whole entry): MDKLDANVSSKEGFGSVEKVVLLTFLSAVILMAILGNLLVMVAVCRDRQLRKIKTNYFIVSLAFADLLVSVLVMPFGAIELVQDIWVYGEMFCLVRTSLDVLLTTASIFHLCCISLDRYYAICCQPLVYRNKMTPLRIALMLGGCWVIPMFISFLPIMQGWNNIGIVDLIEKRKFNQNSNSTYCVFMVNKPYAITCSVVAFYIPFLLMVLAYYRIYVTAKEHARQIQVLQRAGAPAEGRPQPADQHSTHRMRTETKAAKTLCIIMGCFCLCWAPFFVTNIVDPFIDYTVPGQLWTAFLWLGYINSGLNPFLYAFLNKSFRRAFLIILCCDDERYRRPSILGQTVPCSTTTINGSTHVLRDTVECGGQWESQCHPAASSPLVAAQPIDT

Chain of Mitogen-activated protein kinase 3 (P27361 whole entry): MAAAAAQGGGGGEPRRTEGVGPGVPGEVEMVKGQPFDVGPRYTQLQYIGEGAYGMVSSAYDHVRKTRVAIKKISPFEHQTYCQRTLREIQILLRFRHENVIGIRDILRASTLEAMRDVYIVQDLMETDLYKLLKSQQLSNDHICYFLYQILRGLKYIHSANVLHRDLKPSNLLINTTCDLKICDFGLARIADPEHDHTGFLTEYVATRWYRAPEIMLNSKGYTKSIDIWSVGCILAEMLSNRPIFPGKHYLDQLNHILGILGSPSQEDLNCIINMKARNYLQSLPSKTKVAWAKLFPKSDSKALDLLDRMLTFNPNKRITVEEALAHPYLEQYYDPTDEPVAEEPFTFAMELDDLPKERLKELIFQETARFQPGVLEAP

Row | SMILES | IC50 [1] | IC50 (Melanocortin receptor 5) | IC50 ([2]; jurkat) | IC50 (Adenosine receptor A1) | IC50 [3] | IC50 [4] | IC50 (Progesterone receptor) | IC50 [5] | IC50 [6] | IC50 ([2]; read-out: IC50) [nM] | Ki [2] [nM]
1 | CN(N=O)C(=O)N[C@@H](C=O)[C@@H](O)[C@H](O)[C@H](O)CO [STREPTOZOCIN] | Not Active | Not Active | Not Active | Not Active | Not Active | Not Active | Not Active | Not Active | Not Active | – | –
2 | Cc1cc(NS(=O)(=O)c2ccc(N)cc2)no1 [SULFAMETHOXAZOLE] | Not Active | Not Active | Not Active | Not Active | Not Active | Not Active | Not Active | Not Active | Not Active | – | –
3 | Nc1ccc(S(N)(=O)=O)cc1 [SULFANILAMIDE] | Not Active | Not Active | Not Active | Not Active | Not Active | Not Active | Not Active | Not Active | Not Active | – | –
4 | Nc1ccc(S(=O)(=O)Nc2ccnn2-c2ccccc2)cc1 [SULFAPHENAZOLE] | Not Active | Not Active | Not Active | Not Active | Not Active | Not Active | Not Active | Not Active | Not Active | – | –
5 | C=CC[C@@H]1/C=C(\C)C[C@H](C)C[C@H](OC)[C@H]2O[C@@](O)(C(=O)C(=O)N3CCCC[C@H]3C(=O)O[C@H](/C(C)=C/[C@@H]3CC[C@@H](O)[C@H](OC)C3)[C@H](C)[C@@H](O)CC1=O)[C@H](C)C[C@@H]2OC [TACROLIMUS ANHYDROUS] | Not Active | Not Active | Not Active | Not Active | Not Active | Not Active | Not Active | Not Active | Not Active | – | –
6 | CC1CN(c2cc3c(cc2F)c(=O)c(C(=O)O)cn3-c2ccc(F)cc2F)CCN1 (stereo not drawn) [TEMAFLOXACIN] | Not Active | Not Active | Not Active | Not Active | Not Active | Not Active | Not Active | Not Active | Not Active | – | –
7 | CC(C)(C)NCC(O)c1cc(O)cc(O)c1 (stereo not drawn) [TERBUTALINE] | Not Active | Not Active | Not Active | Not Active | Not Active | Not Active | Not Active | Not Active | Not Active | – | –
8 | CN(C)[C@@H]1C(O)=C(C(N)=O)C(=O)[C@@]2(O)C(O)=C3C(=O)c4c(O)cccc4[C@@](C)(O)[C@H]3C[C@@H]12 [TETRACYCLINE] | Not Active | Not Active | Not Active | Not Active | Not Active | Not Active | Not Active | Not Active | Not Active | – | –
9 | c1ccc2[nH]c(-c3cscn3)nc2c1 [THIABENDAZOLE] | Not Active | Not Active | Not Active | Not Active | Not Active | Not Active | Not Active | Not Active | Not Active | – | –
10 | CSc1ccc2c(c1)N(CCC1CCCCN1C)c1ccccc1S2 (stereo not drawn) [THIORIDAZINE] | Not Active | Not Active | – | Not Active | Not Active | Not Active | Not Active | Not Active | Not Active | 363 | 153
11 | Cc1ccc(C(=O)C(C)CN2CCCCC2)cc1 (stereo not drawn) [TOLPERISONE] | Not Active | Not Active | – | Not Active | Not Active | Not Active | Not Active | Not Active | Not Active | 13 | 5.59
12 | COc1cccc(C2(O)CCCCC2CN(C)C)c1 (stereo not drawn) [TRAMADOL] | Not Active | Not Active | Not Active | Not Active | Not Active | Not Active | Not Active | Not Active | Not Active | – | –
13 | NC(CO)(CO)CO [TROMETHAMINE] | Not Active | Not Active | Not Active | Not Active | Not Active | Not Active | Not Active | Not Active | Not Active | – | –
14 | COc1cc(C(=O)NC2CCCNC2)cc(OC)c1OC (stereo not drawn) [TROXIPIDE] | Not Active | Not Active | Not Active | Not Active | Not Active | Not Active | Not Active | Not Active | Not Active | – | –

Reference: ChEMBL document CHEMBL1909046, “DrugMatrix in vitro pharmacology data”
